{"source": "patent US20130121994A1", "about": "“TRIAZOLOPYRIDINE DERIVATIVES” (BAYER INTELLECTUAL PROPERTY GMBH, priority 2009, published 2013)", "data": [{"biological_target": "T1, human kinase Mps-1 (Homo sapiens, UniProt P33981)", "T1 construct": "N-terminally GST-tagged human full length recombinant Mps-1 kinase; GST (N); purchased Invitrogen, Karslruhe, Germany PV4071", "T1 sequence (P33981 1-857)": "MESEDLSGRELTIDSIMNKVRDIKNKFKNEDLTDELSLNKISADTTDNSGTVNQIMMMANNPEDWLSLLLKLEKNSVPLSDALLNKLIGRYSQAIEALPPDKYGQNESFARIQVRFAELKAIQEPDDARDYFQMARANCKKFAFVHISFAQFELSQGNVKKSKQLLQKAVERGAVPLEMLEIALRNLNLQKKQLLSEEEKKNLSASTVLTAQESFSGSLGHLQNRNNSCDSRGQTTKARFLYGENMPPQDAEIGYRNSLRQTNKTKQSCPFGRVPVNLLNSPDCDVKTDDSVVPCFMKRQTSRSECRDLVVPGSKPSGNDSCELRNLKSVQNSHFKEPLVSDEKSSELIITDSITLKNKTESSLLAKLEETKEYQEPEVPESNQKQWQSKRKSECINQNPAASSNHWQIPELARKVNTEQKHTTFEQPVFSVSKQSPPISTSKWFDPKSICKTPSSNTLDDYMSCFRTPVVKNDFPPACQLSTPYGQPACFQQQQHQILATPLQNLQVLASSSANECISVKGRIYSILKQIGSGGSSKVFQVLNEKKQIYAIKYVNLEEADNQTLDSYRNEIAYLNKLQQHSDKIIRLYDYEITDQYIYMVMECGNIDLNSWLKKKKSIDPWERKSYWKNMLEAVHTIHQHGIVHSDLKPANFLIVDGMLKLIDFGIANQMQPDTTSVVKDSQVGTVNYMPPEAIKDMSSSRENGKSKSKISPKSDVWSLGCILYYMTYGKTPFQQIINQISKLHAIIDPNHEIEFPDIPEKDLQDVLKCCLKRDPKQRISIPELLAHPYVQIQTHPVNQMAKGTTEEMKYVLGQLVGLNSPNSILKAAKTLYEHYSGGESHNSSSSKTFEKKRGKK", "assay": "Mps-1 kinase assay (HTRF)", "type": "biochemical", "protocol": "The human kinase Mps-1 phosphorylates a biotinylated substrate peptide. Detection of the phosphorylated product is achieved by homogenous time-resolved fluorescence resonance energy transfer (HTRF) from Europium-labelled anti-phospho-Serine/Threonine antibody as donor to streptavidin labelled with cross-linked allophycocyanin (SA-XLent) as acceptor. Compounds are tested for their inhibition of the kinase activity.\nN-terminally GST-tagged human full length recombinant Mps-1 kinase (purchased from Invitrogen, Karslruhe, Germany, cat. no PV4071) was used. As substrate for the kinase reaction a biotinylated peptide of the amino-acid sequence […] (C-terminus in amide form, purchased from Biosynthan GmbH, Berlin) was used.\nThe concentration of Mps-1 in the assay was adjusted to the activity of the enzyme lot and was chosen appropriate to have the assay in the linear range, typical enzyme concentrations were in the range of about 1 nM (final conc. in the 5 μl assay volume).\nThe resulting mixture was incubated 1 h at 22° C. to allow the binding of the phosphorylated peptide to the anti-phospho(Ser/Thr)-Europium-antibody. Subsequently the amount of phosphorylated substrate was evaluated by measurement of the resonance energy transfer from the Europium-labelled anti-phospho(Ser/Thr) antibody to the Streptavidin-XLent.", "units": {"IC50": "nM"}, "values": [{"molecule": "CC(C)(C)CNC(=O)c1cccc(-c2ccc3nc(Nc4ccccc4C#N)nn3c2)c1", "note": "[Example 11.042, 3-{2-[(2-cyanophenyl)amino][1,2,4]triazolo[1,5-a]pyridin-6-yl}-N-(2,2-dimethylpropyl)benzamide]", "IC50": "≤ 1"}, {"molecule": "O=C(NCCO)c1ccc(Nc2nc3ccc(-c4ccc(C(=O)NCC(F)(F)F)cc4)cn3n2)c(OCC(F)(F)F)c1", "note": "[Example 11.037, N-(2-hydroxyethyl)-3-(2,2,2-trifluoroethoxy)-4-[(6-{4-[(2,2,2-trifluoroethyl)carbamoyl]phenyl}[1,2,4]triazolo [1,5-a]pyridin-2-yl)amino]benzamide]", "IC50": "≤ 1"}, {"molecule": "N#Cc1ccccc1Nc1nc2ccc(-c3cccc(C(N)=O)c3)cn2n1", "note": "[Example 3.8, 3-{2-[(2-cyanophenyl)amino] [1,2,4]triazolo[1,5-a]pyridin-6-yl}benzamide]", "IC50": 110}, {"molecule": "CC(C)CNC(=O)c1cccc(-c2ccc3nc(Nc4ccccc4C#N)nn3c2)c1", "note": "[Example 11.049, 3-{2-[(2-cyanophenyl)amino][1,2,4]triazolo[1,5-a]pyridin-6-yl}-N-isobutylbenzamide]", "IC50": 3.39}, {"molecule": "COc1cc(C(=O)N(C)CCN(C)C(=O)OC(C)(C)C)ccc1Nc1nc2ccc(-c3ccc(C(=O)NCC(F)(F)F)cc3)cn2n1", "note": "[Example 11.021, tert-butyl {2-[{3-methoxy-4-[(6-{4-[(2,2,2-trifluoroethyl)carbamoyl]phenyl}[1,2,4]triazolo [1,5-a]pyridin-2-yl)amino]benzoyl}(methyl)amino]ethyl}methyl-carbamate]", "IC50": 3.5}, {"molecule": "CCOc1cc(C(=O)NCCS(C)(=O)=O)ccc1Nc1nc2ccc(-c3cccc(C(=O)NCC(C)(C)C)c3)cn2n1", "note": "[Example 11.085, 4-[(6-{3-[(2,2-dimethylpropyl)carbamoyl]phenyl}[1,2,4]tria-zolo[1,5-a]pyridin-2-yl)amino]-3-ethoxy-N-[2-(methylsulfonyl)ethyl]benzamide]", "IC50": "≤ 1"}, {"molecule": "CC(C)(C)NC(=O)c1ccc(Nc2nc3ccc(-c4ccc(C(=O)NCC(F)(F)F)cc4)cn3n2)c(OCC(F)(F)F)c1", "note": "[Example 11.002, N-tert-butyl-3-(2,2,2-trifluoroethoxy)-4-[(6-{4-[(2,2,2-trifluoroethyl)-carbamoyl]phenyl}[1,2,4]triazolo[1,5-a]pyridin-2-yl)amino]benzamide]", "IC50": "≤ 1"}, {"molecule": "N#Cc1ccccc1Nc1nc2ccc(-c3cccc(C(=O)NCC(F)(F)C(F)(F)F)c3)cn2n1", "note": "[Example 11.043, 3-{2-[(2-cyanophenyl)amino][1,2,4]triazolo[1,5-a]pyridin-6-yl}-N-(2,2,3,3,3-pentafluoropropyl)benzamide]", "IC50": "≤ 1"}, {"molecule": "C[C@H](O)CNC(=O)c1cccc(-c2ccc3nc(Nc4ccccc4C#N)nn3c2)c1", "note": "[Example 11.071, 3-{2-[(2-cyanophenyl)amino][1,2,4]triazolo[1,5-a]pyridin-6-yl}-N-[(2S)-2-hydroxypropyl]benzamide]", "IC50": 36.9}, {"molecule": "CC(=O)Nc1cccc(-c2ccc3nc(Nc4cccnc4)nn3c2)c1", "note": "[Example 2.4, N-{3-[2-(pyridin-3-ylamino)[1,2,4]triazolo [1,5-a]pyridin-6-yl]phenyl}acetamide]", "IC50": 3100}, {"molecule": "CCNC(=O)c1ccc(Nc2nc3ccc(-c4cccc(C(=O)NCC(C)(C)C)c4)cn3n2)c(OC)c1", "note": "[Example 11.079, 4-[(6-{3-[(2,2-dimethylpropyl)carbamoyl]phenyl}[1,2,4]tria-zolo[1,5-a]pyridin-2-yl)amino]-N-ethyl-3-methoxybenzamide]", "IC50": "≤ 1"}, {"molecule": "N#Cc1ccccc1Nc1nc2ccc(-c3ccc(CO)cc3)cn2n1", "note": "[Example 3.14, 2-({6-[4-(hydroxymethyl)phen-yl][1,2,4]triazolo[1,5-a]pyridin-2-yl}amino)benzonitrile]", "IC50": 770}, {"molecule": "CC(=O)Nc1cccc(-c2ccc3nc(Nc4ccccc4OC(F)(F)F)nn3c2)c1", "note": "[Example 2.6, N-[3-(2-{[2-(trifluoromethoxy)phenyl]amino}[1,2,4]tri-azolo[1,5-a]pyridin-6-yl)phenyl]acetamide]", "IC50": 340}, {"molecule": "N#Cc1ccccc1Nc1nc2ccc(-c3cccc(C(=O)O)c3)cn2n1", "note": "[Example 9.2, 3-{2-[(2-cyanophenyl)amino][1,2,4]triazolo[1,5-a]pyridin-6-yl}benzoic acid]", "IC50": 72}, {"molecule": "CCOc1cc(C(=O)NC(C)(C)C)ccc1Nc1nc2ccc(-c3cccc(C(=O)NCC(F)(F)F)c3)cn2n1", "note": "[Example 11.090, N-tert-butyl-3-ethoxy-4-[(6-{3-[(2,2,2-trifluoroethyl)carbamoyl]phenyl}[1,2,4]triazolo [1,5-a]pyridin-2-yl)amino]benzamide]", "IC50": 1.62}, {"molecule": "CCOC(=O)c1cc(F)cc(-c2ccc3nc(Nc4ccccc4C#N)nn3c2)c1", "note": "[Example 11.075, ethyl 3-{2-[(2-cyanophenyl)amino][1,2,4]triazolo[1,5-a]pyridin-6-yl}-5-fluorobenzoate]", "IC50": 1980}, {"molecule": "CCNC(=O)c1ccc(Nc2nc3ccc(-c4cccc(C(=O)NCC(F)(F)F)c4)cn3n2)c(OCC)c1", "note": "[Example 11.088, 3-ethoxy-N-ethyl-4-[(6-{3-[(2,2,2-trifluoroethyl)carbamoyl]phenyl}[1,2,4]triazolo [1,5-a]pyridin-2-yl)amino]benzamide]", "IC50": "≤ 1"}, {"molecule": "COc1cccnc1Nc1nc2ccc(-c3cc(C)c(O)c(C)c3)cn2n1", "note": "[Example 1.14, 4-{2-[(3-methoxypyridin-2-yl)amino][1,2,4]tri-azolo[1,5-a]pyridin-6-yl}-2,6-dimethylphenol]", "IC50": 160}, {"molecule": "N#Cc1ccccc1Nc1nc2ccc(-c3ccc4[nH]ccc4c3)cn2n1", "note": "[Example 3.21, 2-{[6-(1H-indol-5-yl)[1,2,4]triazolo[1,5-a]pyridin-2-yl]amino}benzonitrile]", "IC50": 210}, {"molecule": "CCOc1cc(C(=O)NCCS(C)(=O)=O)ccc1Nc1nc2ccc(-c3cccc(C(=O)NCC(F)(F)F)c3)cn2n1", "note": "[Example 11.086, 3-ethoxy-N-[2-(methylsulfonyl)ethyl]-4-[(6-{3-[(2,2,2-trifluoroethyl)carbamoyl]phenyl}[1,2,4]triazolo [1,5-a]pyridin-2-yl)amino]benzamide]", "IC50": "≤ 1"}, {"molecule": "COC(C)CNC(=O)c1cccc(-c2ccc3nc(Nc4ccccc4C#N)nn3c2)c1", "note": "(racemic) [Example 11.053, rac-3-{2-[(2-cyanophenyl)amino][1,2,4]triazolo[1,5-a]pyridin-6-yl}-N-(2-methoxypropyl)benzamide]", "IC50": 6.72}, {"molecule": "CC(=O)Nc1cccc(-c2ccc3nc(Nc4ccc(C#N)cc4)nn3c2)c1", "note": "[Example 2.8, N-(3-{2-[(4-cyanophenyl)amino] [1,2,4]triazolo[1,5-a]pyridin-6-yl}phenyl)acetamide]", "IC50": 1000}, {"molecule": "CCOc1ccccc1Nc1nc2ccc(-c3cccc(NC(C)=O)c3)cn2n1", "note": "[Example 2.10, N-(3-{2-[(2-ethoxyphenyl)amino] [1,2,4]triazolo[1,5-a]pyridin-6-yl}phenyl)acetamide]", "IC50": 130}, {"molecule": "CC(C)(C)CNC(=O)c1cccc(-c2ccc3nc(Nc4ccc(C(=O)NCCO)cc4OCC(F)(F)F)nn3c2)c1", "note": "[Example 11.091, 4-[(6-{3-[(2,2-dimethylpropyl)carbamoyl]phenyl}[1,2,4]tria-zolo[1,5-a]pyridin-2-yl)amino]-N-(2-hydroxyethyl)-3-(2,2,2-trifluoroethoxy)benzamide]", "IC50": "≤ 1"}, {"molecule": "CC(C)(C)CC(=O)Nc1ccc(-c2ccc3nc(Nc4ccccc4C#N)nn3c2)cc1", "note": "[Example 11.099, N-(4-{2-[(2-cyanophenyl)amino][1,2,4]triazolo[1,5-a]pyridin-6-yl}phenyl)-3,3-dimethylbutanamide]", "IC50": 18.9}, {"molecule": "COc1ccc(C#N)cc1Nc1nc2ccc(-c3cc(C)c(O)c(C)c3)cn2n1", "note": "[Example 1.13, 3-{[6-(4-hydroxy-3,5-dimethylphenyl)[1,2,4]triazolo[1,5-a]pyridin-2-yl]amino}-4-methoxybenzonitrile]", "IC50": 640}, {"molecule": "COc1cc(C(=O)NCCO)ccc1Nc1nc2ccc(-c3ccc(C(=O)NCC(F)(F)F)cc3)cn2n1", "note": "[Example 11.019, N-(2-hydroxyethyl)-3-methoxy-4-[(6-{4-[(2,2,2-trifluoroethyl)carbamoyl]phenyl}[1,2,4]triazolo [1,5-a]pyridin-2-yl)amino]benzamide]", "IC50": 1.78}]}]}
